Experimental data: ChEMBL document CHEMBL1201862, “PubChem BioAssay data set” (2004)
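Dose response: 5 concentrations. Exposure: 48 h. Format: 96-well plates. Endpoint: linear interpolation; highest concentration if not reached. Here, GI50 denotes the concentration required for 50% inhibition of growth.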 Calls of active or inactive are those of the source. Cut-off read from the data, not from the text of the source: active = GI50 up to about 1.1 µM and inactive = higher.

How the values were obtained:
Assay in all cases: NCI-60 cell line screen, 48 h
[1] = tested on: HCT-15
[2] = tested on: A549
[3] = tested on: IGROV-1
[4] = tested on: HT-29
[5] = tested on: MOLT-4
[6] = tested on: HCT-116
[7] = tested on: K562
[8] = tested on: NCI-H226
[9] = tested on: OVCAR-5
[10] = tested on: CAKI-1
[11] = tested on: SF-295
[12] = tested on: EKVX
[13] = tested on: HOP-92
[14] = tested on: UO-31
[15] = tested on: M14
[16] = tested on: SK-MEL-28
[17] = tested on: OVCAR-3
[18] = tested on: OVCAR-4
[19] = tested on: CCRF-CEM
[20] = tested on: UACC-62

Row | SMILES | GI50 [1] | GI50 [2] | GI50 [3] | GI50 [4] | GI50 [5] | GI50 [6] | GI50 [7] | GI50 [8] | GI50 [9] | GI50 [10] | GI50 [11] | GI50 [12] | GI50 [13] | GI50 [14] | GI50 [15] | GI50 [16] | GI50 [17] | GI50 [18] | GI50 [19] | GI50 [20]
1 | CC1=C/C(=C2/N=C(N(C)C)SS2)C(C)=N1.[O-][Cl+3]([O-])([O-])O | > 100 µM | > 100 µM (inactive) | > 100 µM (inactive) | > 100 µM (inactive) | > 100 µM (inactive) | > 100 µM (inactive) | 42.1 µM (inactive) | > 100 µM (inactive) | > 100 µM (inactive) | > 100 µM (inactive) | > 100 µM (inactive) | > 100 µM (inactive) | > 100 µM (inactive) | > 100 µM (inactive) | > 100 µM (inactive) | > 100 µM (inactive) | > 100 µM (inactive) | 71.3 µM (inactive) | – | –
2 | COc1ccccc1NC(=O)/C(Cc1nc2ccc([N+](=O)[O-])cc2nc1O)=N\NC(=O)C[N+](C)(C)C | 40.7 µM | > 100 µM (inactive) | 55.3 µM (inactive) | 30.5 µM (inactive) | 16.1 µM (inactive) | 46.8 µM (inactive) | – | > 100 µM (inactive) | > 100 µM (inactive) | 70.3 µM (inactive) | 55.7 µM (inactive) | 78 µM (inactive) | > 100 µM (inactive) | 25.7 µM (inactive) | 57.1 µM (inactive) | > 100 µM (inactive) | 41.7 µM (inactive) | > 100 µM (inactive) | 13.3 µM (inactive) | 62.5 µM (inactive)
3 | S=C(N/N=C(/c1ccccc1)c1ccccn1)Nc1cccc(Cl)c1 | – | 1.55 µM (inactive) | – | – | < 0.0297 µM (active) | < 0.0189 µM (active) | – | 0.508 µM (active) | 0.984 µM (active) | 0.701 µM (active) | 0.422 µM (active) | 0.0513 µM (active) | 1.93 µM (inactive) | 0.566 µM (active) | 0.0596 µM (active) | 1.01 µM (active) | – | 0.0524 µM (active) | < 0.0258 µM (active) | 0.201 µM (active)
4 | Clc1ccc(-c2cn3c(nc4ccccc43)c(/C=C/c3cccs3)n2)cc1 | > 100 µM | > 100 µM (inactive) | 92 µM (inactive) | > 100 µM (inactive) | – | 97.9 µM (inactive) | 49.1 µM (inactive) | > 100 µM (inactive) | > 100 µM (inactive) | – | – | – | > 100 µM (inactive) | > 100 µM (inactive) | > 100 µM (inactive) | > 100 µM (inactive) | > 100 µM (inactive) | 34.7 µM (inactive) | 45 µM (inactive) | > 100 µM (inactive)
5 | C[C@]12C[C@H](O)[C@H]3[C@@H](CCC4=CC(=O)CC[C@@]43C)[C@@H]1CC[C@@H]2c1csc(-c2ccccc2)n1 | > 100 µM | 11.2 µM (inactive) | > 68.5 µM (inactive) | > 30.3 µM (inactive) | 0.625 µM (active) | > 100 µM (inactive) | 1.52 µM (inactive) | > 58.1 µM (inactive) | > 100 µM (inactive) | 38.4 µM (inactive) | > 100 µM (inactive) | 21 µM (inactive) | 27.8 µM (inactive) | – | > 92.7 µM (inactive) | > 100 µM (inactive) | > 22.4 µM (inactive) | 23.2 µM (inactive) | – | 29.4 µM (inactive)
6 | CC(C)(C)[Si](OC1CC(n2cnc3c(N)ncnc32)OC1CO)(c1ccccc1)c1ccccc1 (stereo not given) | > 10 µM | 15.2 µM (inactive) | 20.8 µM (inactive) | 16.1 µM (inactive) | 20.7 µM (inactive) | 17.2 µM (inactive) | 17.1 µM (inactive) | 12.4 µM (inactive) | 18.6 µM (inactive) | – | 15 µM (inactive) | 18.4 µM (inactive) | 20.2 µM (inactive) | 23.7 µM (inactive) | 34.6 µM (inactive) | 21.5 µM (inactive) | 16.6 µM (inactive) | 15 µM (inactive) | 12.9 µM (inactive) | –
7 | Nc1ncnc2c1nc(-c1ccccc1)n2C1OC(CO)C(O)C1O (stereo not given) | > 100 µM | > 100 µM (inactive) | > 100 µM (inactive) | > 100 µM (inactive) | > 100 µM (inactive) | > 100 µM (inactive) | > 100 µM (inactive) | > 100 µM (inactive) | > 100 µM (inactive) | > 100 µM (inactive) | > 100 µM (inactive) | > 100 µM (inactive) | > 100 µM (inactive) | > 100 µM (inactive) | > 100 µM (inactive) | > 100 µM (inactive) | > 100 µM (inactive) | > 100 µM (inactive) | – | > 100 µM (inactive)
8 | CCCCCCCCCCCCOC(=S)NC | 17.8 µM | – | 18 µM (inactive) | 18.6 µM (inactive) | 13.1 µM (inactive) | 16.9 µM (inactive) | 19.6 µM (inactive) | 4.25 µM (inactive) | 12.6 µM (inactive) | – | 25.9 µM (inactive) | 20.4 µM (inactive) | 15.5 µM (inactive) | 19 µM (inactive) | 19.7 µM (inactive) | 20 µM (inactive) | – | 24.1 µM (inactive) | 33.4 µM (inactive) | 17.1 µM (inactive)
